Consider 1 compound from patent US20150284362A1, “CARBAZOLE-CONTAINING AMIDES, CARBAMATES, AND UREAS AS CRYPTOCHROME MODULATORS” (ReSet Therapeutics, Inc., priority 2014, published 2015).

Holding throughout (type): in vivo
Series [1] is described as follows: Pharmacokinetic analysis in ICR mice (plasma and liver). The note with it: male, plasma, po, mouse, 50 mg/kg P.O., Table 4, read-out: Total Plasma AUC, AUC (0-last). How it is done:
Male ICR mice (weighing 30-40 g, Charles River Laboratories) were used for the experiment with n=3 mice for each experimental group (27 mice total for the study). […] Blood and liver tissue were collected at the following time points after administration: 15, 30, 60, 90 minutes, 3, 6, 12 and 24 hours. A control group of animals (TO) was also sampled. Animals were euthanized with CO2 and the blood collected from the heart using cardiac puncture, transferred to an EDTA tube, and then centrifuged at 5400 rpm for 5 minutes at 4° C. The resultant plasma was frozen using dry ice and then stored at −80° C. until ready for assay. Liver tissue was removed from each animal, 0.5 g was collected in an eppendorff, frozen and submitted for pharmacokinetic measurement.

Another series has as its system db/db mice. The experiment in a line: Single dose at peak or nadir of clock gene expression, OGTT in db/db mouse model of type II diabetes. The note with it: single dose 50 mg/kg PO at peak (ZT0) of Cry1 and Bmal1 expression. The source says:
Mice were split into two study arms, to be dosed at either the peak or nadir of Cry1 and Bmal1 gene expression. […] Mice dosed at ZT10 were fasted beginning at 8:30 am in the same manner.
(§1) Significance was accepted when p<0.05.

Series [2] is described as follows: Pharmacokinetic analysis in SD rats (plasma). The note with it: male, po, rat, 50 mg/kg P.O., Table 4, read-out: Total Plasma AUC, AUC (0-last). How it is done:
Male SD rats (weighing 250-300 g, Charles River Laboratories) were used for the experiment with n=4 rats for each experimental group. […] Blood was collected at the following time points after administration: 15, 30, 60, 90 minutes, 3, 6, 12 and 24 hours. A pre-dose sample was also collected. Animals were cannulated by technical staff at Charles River, prior to delivery at Reset. Whole blood (0.3 ml) was collected from a cannula in the right common jugular vein at each time-point. The whole blood was transferred to an EDTA tube, and then centrifuged at 5400 rpm for 5 minutes at 4° C. The resultant plasma was frozen using dry ice and then stored at −80° C. until ready for assay. 0.9% Sodium Chloride (0.3 ml) was administered for fluid replenishment after each blood draw. 0.1 ml of Sodium Heparin (500 IU/ml) was used as a lock solution after the 12 hr time-point. Samples were assayed as described above.

The test system of the next series is C57/Bl6J DIO mice. The experiment in a line: 7 day dosing in diet-induced obesity (DIO) mouse model of type II diabetes. The note with it: 100 mg/kg PO QD 7 days.
Text: Male C57/Bl6J DIO mice were obtained from The Jackson Laboratory (Sacramento, Calif.). […] Animals were accustomed to these conditions for at least 2 weeks before experimentation and used at approximately 24 weeks of age.
as §1

The structures appear in SMILES notation.

With `O=C1NCCN1CC(O)Cn1c2ccc(F)cc2c2cc(F)ccc21` (stereo not shown) [Compound 72, 1-(3-(3,6-difluoro-9H-carbazol-9-yl)-2-hydroxypropyl)imidazolidin-2-one], the figures for the AUC(0-t) in series [1] and in series [2] were 4160 ng·h/mL and 57900 ng·h/mL, respectively. In addition, the “effect on OGTT measurement” value with db/db mice was “apparent effect”. Further, the “OGTT glucose vs vehicle control group” value in the series with C57/Bl6J DIO mice is on record as “much lower than the vehicle control group”.
